Assay results as given in PubChem BioAssay AID206 (DTP/NCI, 2004).
Inconclusive results are not listed.

Tested on: nude mice, HT29 intrarenal xenograft, tumor weight T/C
Experiment: NCI In Vivo Anticancer Drug Screen. Data for tumor model HT29;CX-1 Human Adenocarcinoma (MER+) (intrarenal inoculation) in NU/NU Swiss (nude) mice
Settings: endpoint: mean tumor weight change, higher = larger tumour
Summary of the method: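 Readout: treated/vehicle-control ratio of the measured endpoint (tumor size or survival) in transplanted-tumor mice.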

[1] = dose: 600.0 mg/kg/injection, schedule: Q04DX004 (sc), vehicle: saline

## O=C1C(NCCO)=C(N2CC2)C(=O)C(NCCO)=C1N1CC1
dose: 0.5 mg/kg/injection, schedule: Q04DX004 (sc), vehicle: saline
  T/C: 76 % of control
dose: 1.0 mg/kg/injection, schedule: Q04DX004 (sc), vehicle: saline
  T/C: 12 % of control
dose: 1.5 mg/kg/injection, schedule: Q04DX004 (sc), vehicle: saline
  T/C: 86 % of control
dose: 2.0 mg/kg/injection, schedule: Q04DX004 (sc), vehicle: saline
  T/C: 21 % of control
dose: 3.0 mg/kg/injection, schedule: Q04DX004 (sc), vehicle: saline
  T/C: 82 % of control

## Nc1ncn(C2CC(O)C(CO)O2)c(=O)n1 (stereo not given)
dose: 0.2 mg/kg/injection, schedule: Q01DX010 (sc), vehicle: saline
  T/C: 84 % of control

## Cc1cc(N(CCOS(C)(=O)=O)CCOS(C)(=O)=O)ccc1C=Nc1ccc(-c2nc(Cc3ccccc3)sc2C)cc1
dose: 50.0 mg/kg/injection, schedule: Q01DX010 (sc), vehicle: Klucel (hydroxypropylcellulose) (HPC)
  T/C: 92 % of control
dose: 100.0 mg/kg/injection, schedule: Q01DX010 (sc), vehicle: Klucel (hydroxypropylcellulose) (HPC)
  T/C: 80 % of control
dose: 200.0 mg/kg/injection, schedule: Q01DX010 (sc), vehicle: Klucel (hydroxypropylcellulose) (HPC)
  T/C: 117 % of control

## Cc1ccccc1CN1C2=NCCN2C(=O)C2=C1CCN(S(=O)(=O)c1ccc(Cl)c(S(N)(=O)=O)c1)C2
dose: 150.0 mg/kg/injection, schedule: Q04DX004 (sc), vehicle: saline
  T/C: 86 % of control
dose: 300.0 mg/kg/injection, schedule: Q04DX004 (sc), vehicle: saline
  T/C: 168 % of control
[1]
  T/C: 115 % of control
dose: 1200.0 mg/kg/injection, schedule: Q04DX004 (sc), vehicle: saline
  T/C: 75 % of control

## CCCCCCCC(=O)N/N=C(\CO)[C@]1(O)Cc2c(O)c3c(c(O)c2[C@@H](OC2CC(N)C(O)C(C)O2)C1)C(=O)c1c(OC)cccc1C3=O (stereo not given in full)
dose: 31.25 mg/kg/injection, schedule: Q04DX004 (sc), vehicle: water
  T/C: 2 % of control
dose: 32.5 mg/kg/injection, schedule: Q04DX004 (sc), vehicle: water
  T/C: 102 % of control
dose: 62.5 mg/kg/injection, schedule: Q04DX004 (sc), vehicle: water
  T/C: 51 % of control
dose: 65.0 mg/kg/injection, schedule: Q04DX004 (sc), vehicle: water
  T/C: 34 % of control
dose: 130.0 mg/kg/injection, schedule: Q04DX004 (sc), vehicle: water
  T/C: 46 % of control
dose: 250.0 mg/kg/injection, schedule: Q04DX004 (sc), vehicle: water
  T/C: 10 % of control
dose: 260.0 mg/kg/injection, schedule: Q04DX004 (sc), vehicle: water
  T/C: 19 % of control

## C=C(C)[C@H]1Cc2c(ccc3c2O[C@@H]2COc4cc(OC)c(OC)cc4[C@@H]2C3=O)O1
dose: 2.0 mg/kg/injection, schedule: Q01DX010 (sc), vehicle: saline with Tween-80
  T/C: 161 % of control
dose: 4.0 mg/kg/injection, schedule: Q01DX010 (sc), vehicle: saline with Tween-80
  T/C: 29 % of control
dose: 8.0 mg/kg/injection, schedule: Q01DX010 (sc), vehicle: saline with Tween-80
  T/C: 57 % of control

## OCCN1CCN(CC/C=C2/c3ccccc3Sc3ccc(C(F)(F)F)cc32)CC1
dose: 5.0 mg/kg/injection, schedule: Q01DX010 (sc), vehicle: saline
  T/C: 80 % of control
dose: 10.0 mg/kg/injection, schedule: Q01DX010 (sc), vehicle: saline
  T/C: 49 % of control
dose: 20.0 mg/kg/injection, schedule: Q01DX010 (sc), vehicle: saline
  T/C: 67 % of control
dose: 40.0 mg/kg/injection, schedule: Q01DX010 (sc), vehicle: saline
  T/C: 42 % of control

## CCCCOC(=O)/C=C(\Br)C(=O)OCCCC
dose: 250.0 mg/kg/injection, schedule: Q04DX004 (sc), vehicle: saline with Tween-80
  T/C: 69 % of control
dose: 500.0 mg/kg/injection, schedule: Q04DX004 (sc), vehicle: saline with Tween-80
  T/C: 43 % of control

## CCc1ncnc2cc(OCC3CO3)c(OC)cc12 (stereo not given)
dose: 25.0 mg/kg/injection, schedule: Q04DX004 (sc), vehicle: saline
  T/C: 69 % of control
dose: 50.0 mg/kg/injection, schedule: Q04DX004 (sc), vehicle: saline
  T/C: 36 % of control
dose: 100.0 mg/kg/injection, schedule: Q04DX004 (sc), vehicle: saline
  T/C: 80 % of control

## O=C(Nc1ccc(C2=NCCN2)cc1)c1ccc(C(=O)Nc2ccc(C3=NCCN3)cc2)c(Cl)c1
dose: 12.5 mg/kg/injection, schedule: Q01DX010 (sc), vehicle: water
  T/C: 101 % of control
dose: 25.0 mg/kg/injection, schedule: Q01DX010 (sc), vehicle: water
  T/C: 61 % of control
dose: 50.0 mg/kg/injection, schedule: Q01DX010 (sc), vehicle: water
  T/C: 78 % of control

## Nc1ccn(C2OC(CO)C(O)C2O)c(=O)n1 (stereo not given)
dose: 15.63 mg/kg/injection, schedule: Q01DX010 (sc), vehicle: water
  T/C: 100 % of control
dose: 31.25 mg/kg/injection, schedule: Q01DX010 (sc), vehicle: water
  T/C: 102 % of control
dose: 500.0 mg/kg/injection, schedule: Q04DX004 (sc), vehicle: saline
  T/C: 62 % of control
[1]
  T/C: 77 % of control
dose: 1000.0 mg/kg/injection, schedule: Q04DX004 (sc), vehicle: saline
  T/C: 19 % of control
